Results on two compounds are retold here after US9308210B2, “Method for modulating canonical Wnt pathway using folate and inositol” (University of South Florida, priority 2009, dated 2016).

SMILES strings stand for the structures. Where “and” joins values, the source holds several entries; their conditions need not be identical. Equal entries are not always repeated. Structures can show the parent of a compound that is named as a salt.

This data set deals with C57BL/6 mouse embryos. Description: Doppler ultrasonography at E15.5 of mouse embryos exposed to Li or HCy on E6.75, FA rescue. Type of data set: in vivo. The conditions noted are these: for Valve Regurgitation (percent of embryos): hydrochloride. The source says:
To determine whether the results in the avian system would extend to the mammalian system, the inventors conducted studies in the mouse embryo. All mice were maintained according to protocols approved by the Institutional Animal Care and Use Committee at the University of South Florida. The C57BL/6 mouse strain (Jackson Laboratories, Bar Harbor, Me.) was used throughout the study. E0.5 was defined as the morning when the vaginal sperm plug was detected. Timed pregnant mice were randomly allocated to receive a single dose of 100 μl of 6.25 mg/ml Li chloride, as determined previously (Chen et al., 2008), 100 μl of 75 μM HCy, or 100 μl of 6.25 mg/ml sodium chloride (control group); all treatments were given intraperitoneally (i.p). On E15.5, the utero-placental circulation of the pregnant mice, and the central and peripheral circulations of the embryos were examined non-invasively in utero using Doppler ultrasonography (Gui et al., 1996; Linask and Huhta, 2000). Sixty-eight embryos were exposed to Li, 59 to HCy and 42 to physiological saline.
An HCy concentration of 75 μM, used for maternal exposure, was determined empirically using different doses of HCy (i.e. 150, 75, 50 and 15 μM). The minimal teratogenic dose was determined to be 75 μM. […] The single i.p. injection of HCy at E6.75 produced a high number of valve defects (66%), as well as resorptions (46%). […] Because not all embryos within litters are at exactly the same stage of development, the variability of effects seen with either Li or HCy probably reflects the differences in developmental stage.
As a control diet (i.e. normal mouse chow), mice continued to receive 3.3 mg/kg of FA as the baseline to maintain the health of the female mice. […] The animal chow supplemented with 10.5 mg/kg of FA was prepared for us by Harlan Laboratories. As recommended by Harlan, the calculations for the FA level in the special diet are based on the metabolic body weight of mice. Because of the obvious large difference in body weight between humans and mice, and because of the large difference in metabolic rate, Harlan uses the metabolic weight as a method of scaling these differences between species; for mice this was calculated to be BW0.75 (i.e. metabolic weight equals body weight to the 0.75 power). Each mouse consumes approximately 4 g of chow per day; therefore, to obtain the desired dose of 10.5 mg/kg, the inventors added 7.2 mg/kg of FA to the normal 3.3 mg/kg that is present in commercial chow. […]
Doppler ultrasonographic examinations were carried out using the Philips Sonos 5500 (Andover, Mass.) with a 12 MHz transducer and, more recently, with a Vevo 770 (VisualSonics) system. Both instruments provided similar echo patterns. On E15.5, the pregnant mice were anesthetized using a Surgivet Tech 4 anesthesia system (Waukesha, Wis.) with inhalation anesthesia, consisting of 3% isoflurane, administered through a nose cone; the mice were then maintained on 1% isoflurane with 21% oxygen. The mother was placed supine on a heating pad with electrode footpads. The heart rate and temperature of the pregnant mice were monitored using a THM100 (Indus Instruments, Houston, Tex.) during scanning. The body temperature was maintained at 37° C.
Maternal uterine artery blood flow velocity waveforms were obtained and the pulsatility index was calculated. The embryos were visualized and their position mapped in each uterine horn. Blood flow in the heart and blood vessels was detected in each embryo using color Doppler, and blood flow velocity waveforms were obtained using pulsed wave Doppler. Once the embryonic heart was identified by color Doppler, the sample volume of the pulsed Doppler was placed over the entire heart to obtain blood velocities. The gate length was adjusted to completely insonate the beating embryonic heart. The high-pass filter was at its lowest setting of 50 Hz. […]

The mark [1] stands for this setting: echo at E15.5 after exposure on E6.75.
The mark [2] stands for this setting: echo at E15.5 after single exposure on E6.75.
The mark [3] stands for this setting: median, E15.5 after exposure at E6.75.

For the compound `Nc1nc2ncc(CNc3ccc(C(=O)N[C@@H](CCC(=O)O)C(=O)O)cc3)nc2c(=O)[nH]1` [FA, folic acid], where the note is “3.3 mg/kg of FA in normal mouse chow”, the “rescue of cardiac defects by baseline FA supplementation” value is on record as “does not rescue cardiac defects”. Besides, the “normalization of exposure effects by FA provided on E6.75” value (FA i.p. on E6.75) was “normalized the effects of HCy, but not Li”.
As for `N[C@H]1CCSC1=O` [HCy, L-homocysteine thiolactone hydrochloride], under “E15.5”, the “outflow peak velocity, maximum mean value” was determined as 84.0; the “outflow peak velocity, maximum value” was 84.00 cm/s; the “outflow peak velocity, minimum mean value” was 18.5; the “outflow peak velocity, minimum value” came out at 18.53 cm/s. Under setting [1], the “AV valve regurgitation, percent of embryos” value is 10%; the “SL valve regurgitation, percent of embryos” value amounted to 53%; the “both SL and AV valve regurgitation, percent of embryos” value was found to be 3%. Further, under setting [2], the “Valve Regurgitation (embryos affected/total)” value is recorded as 39/59; the “Valve Regurgitation (percent of embryos)” value was 66% and 66.1%. Moreover, the “Valve Regurgitation (percent of embryos)” value (echo at E15.5 after single exposure on E6.75, listed as HCys) is on record as 66.1%. Moreover, the minimal teratogenic dose (maternal exposure, mouse, 150, 75, 50 and 15 μM tested) stood at 75 µM. Besides, under setting [3], the “Embryonic A vel” value was found to be 40.14 cm/s, the “Embryonic Descending Aorta PI” value was 1.99, the “Embryonic Ductus Veno sus PI” value was determined as 0.97 and the “Embryonic E vel” value was found to be 12.25 cm/s. For the same compound, under setting [3], the “Embryonic E/A ratio” value stood at 0.30, the “Embryonic ET %” value is 42.51%, the “Embryonic Heart Rate” value came to 181 beats/min and the “Embryonic ICT %” value turned out to be 6.56%. In addition, under setting [3], the “Embryonic IRT %” value was 11.93%, the “Embryonic MPI” value was found to be 0.44, the “Embryonic OF peak velocity” value was 39.92 cm/s and the “Embryonic Umbilical Artery PI” value is on record as 1.55. In addition, under setting [3], the “Maternal Heart Rate” value is given as “#458 beats/min” and the “Maternal Uterine Artery PI” value is on record as 2.82. The “valve defects after i.p. injection on E7.75” value (mouse, in vivo, ip) is “did not cause any valve defects”.
